Reference: ChEMBL document CHEMBL3045745, “Antioxidant activity and inhibition effect on the growth of human colon carcinoma (HT-29) cells of esculetin from Cortex Fraxini” (Med Chem Res, 2011)
Converted amounts (≈) assume the structure as drawn. The source made the active and inactive calls. No cut-off for these calls is given here.

What was measured:
[1] = Antioxidant activity assessed as hydroxyl radical scavenging by resonance scattering method; assay type: functional
[2] = test system: Radical scavenging activity; assay: Antioxidant activity assessed as DPPH radical scavenging at 0.5 mg/ml measured at 50 min by spectrophotometric analysis relative to control; assay type: functional
[3] = Antioxidant activity assessed as reduction of Mo(6) in phophomolybdenum at 0.5 mg/ml after 150 min by spectrophotometric analysis; assay type: functional
[4] = Antioxidant activity assessed as potassium ferricyanide reduction at 0.5 mg/ml after 20 min by spectrophotometric analysis; assay type: functional
[5] = Antioxidant activity assessed as potassium ferricyanide reduction at 0.05 mg/ml after 20 min by spectrophotometric analysis; assay type: functional
[6] = Antioxidant activity assessed as reduction of Mo(6) in phophomolybdenum at 0.1 mg/ml after 150 min by spectrophotometric analysis; assay type: functional
[7] = test system: Radical scavenging activity; assay: Antioxidant activity assessed as DPPH radical scavenging at 0.02 to 0.1 mg/ml measured within 10 min by spectrophotometric analysis; assay type: functional
HT-29 [8] = assay: Growth inhibition of Homo sapiens (human) HT-29 cells assessed as inhibition of [3H]hypoxanthine incorporation at higher concentration incubated for 18 hr prior to [3H]hypoxanthine addition measured after 4 to 6 hr; assay type: functional, cell-based
[9] = test system: Radical scavenging activity; assay: Antioxidant activity assessed as DPPH radical scavenging at 0.02 mg/ml measured at 50 min by spectrophotometric analysis relative to control; assay type: functional
[10] = test system: Radical scavenging activity; assay: Antioxidant activity assessed as DPPH radical scavenging at 0.05 mg/ml measured at 50 min by spectrophotometric analysis relative to control; assay type: functional
[11] = test system: Radical scavenging activity; assay: Antioxidant activity assessed as DPPH radical scavenging at 0.08 mg/ml measured at 50 min by spectrophotometric analysis relative to control; assay type: functional
HT-29 [12] = assay: Induction of Homo sapiens (human) HT-29 cell proliferation assessed as [3H]hypoxanthine incorporation at 0.25 to 2 mg/ml incubated for 18 hr prior to [3H]hypoxanthine addition measured after 4 to 6 hr; assay type: cell-based

| IC50 [1] [µg/mL] | Compound | Activity [2] [%] | Activity [3] | Activity [4] | Activity [5] | Activity [6] | Activity [7] | growth inhibition (GI) (HT-29 [8]) | Activity [9] [%] | Activity [10] [%] | Activity [11] [%] | Activity (HT-29 [12]) |
| --- | --- | --- | --- | --- | --- | --- | --- | --- | --- | --- | --- | --- |
| 2.883 (≈ 13.1 µM) | Cc1cc(C(C)(C)C)c(O)c(C(C)(C)C)c1 [BUTYLATED HYDROXYTOLUENE] | 47.6 | Active | Active | Active | – | – | – | – | – | – | – |
| 0.091 (≈ 0.511 µM) | O=c1ccc2cc(O)c(O)cc2o1 [ESCULETIN] | – | – | Active | Active | Active | Active | Dose-dependent effect | 28.1 | 59.9 | 79.7 | Toxic |
